Reference: patent US9434994B2, “Methods for prediction of clinical outcome to epidermal growth factor receptor inhibitors by non-small cell lung cancer patients” (The Regents of the University of Colorado, a body corporate, priority 2004, dated 2016)
Several values for one entry are separate records, joined by “and”; a condition that tells them apart may be missing. Identical values can stand only once. Like-named read-outs stand apart in the source and are kept apart here.

Test system: advanced non-small-cell lung cancer patients
[1] = EGFR FISH Group 1 (disomy to low polysomy)
[2] = EGFR FISH Group 2 (high polysomy, amplification)
[3] = EGFR FISH- and/or P-Akt- (any negative)
[4] = EGFR IHC- and/or P-Akt- (any negative)
[5] = EGFR mutation- and/or P-Akt- (any negative)
[6] = HER2 FISH+ and/or EGFR IHC+ (other three groups combined)

Procedure: Eligibility included histologically confirmed NSCLC patients with measurable, locally advanced or metastatic disease, who had progressed or relapsed after chemotherapy, and patients ineligible for chemotherapy because they were elderly, had poor performance status, or comorbid medical condition. Before trial inclusion, smoking status was assessed and patients were classified as never, former (smoking cessation >6 months prior to trial inclusion), or current smokers (cessation <6 months before trial inclusion or active smoker).
Patients were evaluated for response according to the RECIST criteria (30). Tumor response was assessed by computer tomography scan every two months, with a confirmatory evaluation to be repeated in responding patients at least 4 weeks after the initial determination of response. […] Survival (OS) was calculated from the date of therapy initiation to the date of death or last contact.
Differences between the FISH groups were compared by Fisher's exact test or χ^2 test for qualitative variables and by t-student test or ANOVA for continuous variables. Normality of the distribution was assessed by Kolmogorov-Smirnov test. […] Risk factors associated with survival were evaluated using Cox's proportional-hazards regression model with a step-down procedure (33). Only those variables with significant results in univariate analysis were included in the multivariate analysis. The criteria for variable removal was the likelihood ratio statistic based on the maximum partial likelihood estimated (default p-value=0.10 for removal from the model).
Complete clinical information and tissue blocks were available from 80 out of 106 patients enrolled in the Akt clinical trial (Cappuzzo et al., ibid.), and from an additional 22 patients in the Expanded Access Study who were treated consecutively at the end of the Akt study and followed in the same way as patients in the Akt trial.
Eligibility for both studies included histologically confirmed NSCLC with measurable, locally advanced or metastatic disease, progressing or relapsing after chemotherapy or with medical contraindications for chemotherapy. Patients had performance status ranging from grade 0 to 2. Performance status was defined according to Eastern Cooperative Oncology Group (Oken et al., 1982) and considered grade 0 when the patient was fully active and able to perform all pre-disease activities without restriction, grade 1 when the patient was restricted in physically strenuous activity but ambulatory and able to perform work of a light or sedentary nature, and grade 2 when the patient was ambulatory and capable of all self-care but unable to perform any work activities.
Tumor response was assessed by computer tomography scan after 2 months, with a confirmatory evaluation to be repeated in responders and in patients with stable disease at least 4 weeks after the initial determination of response. […] Survival was calculated from the date of therapy initiation to the date of death or to the date of last contact.
Differences between and among groups were compared using Fisher's exact test or Pearson's chi square test for qualitative variables and using student's t test or analysis of variance for continuous variables. Normality of the distribution was assessed using the Kolmogorov-Smirnov test (Curiel et al., 1990).

For `COc1cc2ncnc(Nc3ccc(F)c(Cl)c3)c2cc1OCCCN1CCOCC1` [gefitinib], the “Patients progressed at 12 months” value (EGFR FISH Group 1) was 91%, the Two-year survival rate (EGFR FISH Group 1) was 17% and the “% Patients without disease progression at 12 months” value [1] was 8.7%. The “Complete and Partial Response” value [1] was 2.9%, the “Median Time to Progression” value [1] was 2.5 months and the “One-year Survival Rate” value [1] was 36.2%. The “Progressive Disease” value [1] was 73.9%, the “Stable Disease” value [1] was 23.2% and the “Patients progressed at 12 months” value (EGFR FISH Group 2) was 61%. The Two-year survival rate (EGFR FISH Group 2) was 40%, the “% Patients without disease progression at 12 months” value [2] was 39.4% and the “Complete and Partial Response” value [2] was 36% and 36.4%. For the same molecule, the “Disease Control Rate” value [2] was 66.7%, the “Median Time to Progression” value [2] was 6.3 months and the “One-year Survival Rate” value [2] was 63.6%. For the same molecule, the “Progressive Disease” value [2] was 33.3%, the “Stable Disease” value [2] was 30.3% and the “% Patients without disease progression at 12 months” value (EGFR FISH disomy) was 8.3%. For the same molecule, the “Complete and Partial Response” value (EGFR FISH disomy) was “no responders”, the “Median Time to Progression” value (EGFR FISH disomy) was 2.5 months and the “One-year Survival Rate” value (EGFR FISH disomy) was 38.9%. For the same molecule, the “Progressive Disease” value (EGFR FISH disomy) was 75%, the “Stable Disease” value (EGFR FISH disomy) was 25.0% and the “% Patients without disease progression at 12 months” value (EGFR FISH high polysomy) was 35.0%. For the same molecule, the “Disease Control Rate” value (EGFR FISH high polysomy) was 60.0%, the “Median Time to Progression” value (EGFR FISH high polysomy) was 6.6 months and the “One-year Survival Rate” value (EGFR FISH high polysomy) was 65.0%. The “Progressive Disease” value (EGFR FISH high polysomy) was 40%, the “Stable Disease” value (EGFR FISH high polysomy) was 35% and the “% Patients without disease progression at 12 months” value (EGFR FISH high trisomy) was 100%. For the same molecule, the “Complete and Partial Response” value (EGFR FISH high trisomy) was 100%, the “Disease Control Rate” value (EGFR FISH high trisomy) was 100% and the “Median Overall Survival” value (EGFR FISH high trisomy) was 13.7 months. The “One-year Survival Rate” value (EGFR FISH high trisomy) was 100%, the “% Patients without disease progression at 12 months” value (EGFR FISH low polysomy) was 0% and the “Complete and Partial Response” value (EGFR FISH low polysomy) was “no responders”. For the same molecule, the “Disease Control Rate” value (EGFR FISH low polysomy) was 14.3%, the “Median Overall Survival” value (EGFR FISH low polysomy) was 3.0 months and the “Median Time to Progression” value (EGFR FISH low polysomy) was 2.1 months. For the same molecule, the “Progressive Disease” value (EGFR FISH low polysomy) was 86% and 85.7%, the “Stable Disease” value (EGFR FISH low polysomy) was 14.3% and the “% Patients without disease progression at 12 months” value (EGFR FISH low trisomy) was 5.9%. The “Complete and Partial Response” value (EGFR FISH low trisomy) was “no responders”, the “Disease Control Rate” value (EGFR FISH low trisomy) was 29.4% and the “Median Overall Survival” value (EGFR FISH low trisomy) was 10.2 months. For the same molecule, the “Median Time to Progression” value (EGFR FISH low trisomy) was 3.6 months, the “One-year Survival Rate” value (EGFR FISH low trisomy) was 41.2% and the “Progressive Disease” value (EGFR FISH low trisomy) was 71% and 70.6%. The “Stable Disease” value (EGFR FISH low trisomy) was 29.4%, the “1-year Cumulative Survival ± SD” value (EGFR FISH+/P-Akt+) was 33 ± 9% and the “Median Survival” value (EGFR FISH+/P-Akt+) was 18.7 months. For the same molecule, the “1-year Cumulative Survival ± SD” value (EGFR FISH+/P-Akt-) was 75 ± 22%, the “Median Time to Progression” value (EGFR FISH+/P-Akt-) was 1.1 months and the “Objective Response” value (EGFR FISH+/P-Akt-) was 0%. For the same molecule, the “Disease Control Rate” value [3] was 28% and 19/27%, the “Median Time to Progression” value [3] was 2.5 months and the “Objective Response” value [3] was 3% and 2/3%. The “Median Time to Progression” value (EGFR FISH-/P-Akt+) was 2.6 months, the “Objective Response” value (EGFR FISH-/P-Akt+) was 5% and 2/5% and the “1-year Cumulative Survival ± SD” value (EGFR FISH-/P-Akt-) was 57 ± 9%. The “Disease Control Rate” value (EGFR FISH-/P-Akt-) was 6/22%, the “Median Time to Progression” value (EGFR FISH-/P-Akt-) was 2.4 months and the “Objective Response” value (EGFR FISH-/P-Akt-) was 0%. The 1-year survival (EGFR IHC score 0-99) was 27% and 27 ± 10%, the “MS (median overall survival)” value (EGFR IHC score 0-99) was 4.5 mo and the “PD (progressive disease)” value (EGFR IHC score 0-99) was 19 (95%). The TTP (EGFR IHC score 0-99) was 2.1 mo, the 1-year survival (EGFR IHC score 100-199) was 35% and 35 ± 10% and the “MS (median overall survival)” value (EGFR IHC score 100-199) was 5.3 mo. The “OR (objective response)” value (EGFR IHC score 100-199) was 2 (10%), the TTP (EGFR IHC score 100-199) was 2.3 mo and the “MS (median overall survival)” value (EGFR IHC score 200-299) was 15.2 mo. For the same molecule, the “OR (objective response)” value (EGFR IHC score 200-299) was 4 (26%), the “PD (progressive disease)” value (EGFR IHC score 200-299) was 5 (33%) and the “MS (median overall survival)” value (EGFR IHC score 300-400) was 11.3 mo. For the same molecule, the “PD (progressive disease)” value (EGFR IHC score 300-400) was 21 (49%), the TTP (EGFR IHC score 300-400) was 4.5 mo and the 1-year survival (EGFR IHC+ (≧200)) was 48 ± 7%. For the same molecule, the “MS (median overall survival)” value (EGFR IHC+ (≧200)) was 11.5 mo, the TTP (EGFR IHC+ (≧200)) was 5.2 mo and the “Median Time to Progression” value (EGFR IHC+/P-Akt+) was 6.2 months. The “1-year Cumulative Survival ± SD” value (EGFR IHC+/P-Akt-) was 35 ± 12%, the “Median Time to Progression” value (EGFR IHC+/P-Akt-) was 1.8 months and the “Objective Response” value (EGFR IHC+/P-Akt-) was 0%. The 1-year survival (EGFR IHC- (<200)) was 31 ± 7%, the “MS (median overall survival)” value (EGFR IHC- (<200)) was 5.0 mo and the TTP (EGFR IHC- (<200)) was 2.3 mo. For the same molecule, the “1-year Cumulative Survival ± SD” value [4] was 35 ± 7%, the “Median Time to Progression” value [4] was 2.3 months and the “Objective Response” value [4] was 4% and 2/3%. The “Disease Control Rate” value (EGFR IHC-/P-Akt+) was 7/27%, the “Median Time to Progression” value (EGFR IHC-/P-Akt+) was 2.3 months and the “Objective Response” value (EGFR IHC-/P-Akt+) was 2/8%. For the same molecule, the “1-year Cumulative Survival ± SD” value (EGFR IHC-/P-Akt-) was 54 ± 8%, the “Disease Control Rate” value (EGFR IHC-/P-Akt-) was 1/7% and the “Median Survival” value (EGFR IHC-/P-Akt-) was 4.2 months. The “Median Time to Progression” value (EGFR IHC-/P-Akt-) was 2.0 months, the “Objective Response” value (EGFR IHC-/P-Akt-) was 0% and the “Median Survival” value (EGFR Mutation+/P-Akt+) was 20.8 months. The “Median Time to Progression” value (EGFR Mutation+/P-Akt+) was 11.2 months, the “Disease Control Rate” value (EGFR Mutation+/P-Akt-) was 0% and the “Median Survival” value (EGFR Mutation+/P-Akt-) was 3.1 months. The “Median Time to Progression” value (EGFR Mutation+/P-Akt-) was 1.1 months, the “Objective Response” value (EGFR Mutation+/P-Akt-) was 0% and the “1-year Cumulative Survival ± SD” value (EGFR Mutation-/P-Akt+) was 50 ± 35%. For the same molecule, the “Median Time to Progression” value (EGFR Mutation-/P-Akt+) was 2.7 months, the “Objective Response” value (EGFR Mutation-/P-Akt+) was 4/9% and the “1-year Cumulative Survival ± SD” value (EGFR Mutation-/P-Akt-) was 65 ± 14%. The “Disease Control Rate” value (EGFR Mutation-/P-Akt-) was 6/22%, the “Median Time to Progression” value (EGFR Mutation-/P-Akt-) was 2.4 months and the “Objective Response” value (EGFR Mutation-/P-Akt-) was 0%. For the same molecule, the “% Patients without disease progression at 12 months” value (EGFR gene amplification) was 46.2%, the “Complete and Partial Response” value (EGFR gene amplification) was 53.8% and 54% and the “Disease Control Rate” value (EGFR gene amplification) was 76% and 76.9%. The “Median Time to Progression” value (EGFR gene amplification) was 6.0 months, the “One-year Survival Rate” value (EGFR gene amplification) was 61.5% and the “Progressive Disease” value (EGFR gene amplification) was 23.1%. The “Stable Disease” value (EGFR gene amplification) was 23.1%, the 1-year survival (EGFR mutation absent) was 38 ± 6 and the PD (EGFR mutation absent) was 50 (68%). The TTP (EGFR mutation absent) was 2.6 mo, the 1-year survival (EGFR mutation present) was 57 ± 13 and the MS (EGFR mutation present) was 20.8 mo. For the same molecule, the TTP (EGFR mutation present) was 9.9 mo, the “Disease Control Rate” value [5] was 32% and 23/31% and the “Median Time to Progression” value [5] was 2.6 months. The “Objective Response” value [5] was 6% and 4/5%, the DCR (HER2 FISH+) was 56.5% and the OR (HER2 FISH+) was 34.8%. It also gave an OS (HER2 FISH+) of 20.8 months, a TTP (HER2 FISH+) of 9.05 months and a DCR (HER2 FISH+ and/or EGFR FISH+) of 57.1%. For the same molecule, the OR (HER2 FISH+ and/or EGFR FISH+) was 28.6%, the DCR [6] was 51.5% and the OR [6] was 19.1%. For the same molecule, the OR (HER2 FISH+ and/or EGFR mutation+ (other groups combined)) was 30.8%, the DCR (HER2 FISH+/EGFR FISH+) was 76.9% and the OR (HER2 FISH+/EGFR FISH+) was 53.8%. For the same molecule, the “median OS” value (HER2 FISH+/EGFR FISH+) was 20.8 months, the “median TTP” value (HER2 FISH+/EGFR FISH+) was 9.8 months and the OR (HER2 FISH+/EGFR FISH-) was 21.0%. The “median TTP” value (HER2 FISH+/EGFR FISH-) was 2.3 months, the DCR (HER2 FISH+/EGFR IHC+) was 76.9% and the OR (HER2 FISH+/EGFR IHC+) was 53.8%. It also gave an OS (HER2 FISH+/EGFR IHC+) of 20.8 months.
